# Reference: patent US20250255867A1 (Kadmon Corporation, LLC, priority 2022, published 2025)
# System: patients with cGVHD
# Assay: Example 1: pulmonary function (percent predicted FEV1, FVC, DLco, TLC, RV) change from baseline
# Format: in vivo, human
# Protocol: Change From Baseline in Percent Predicted Forced Expiratory Volume in 1 Second (FEV1) at Each Specified Time Points. FEV1 was the volume of air exhaled from the lungs in the first second of a forced expiration as measured by spirometer. Baseline value was defined as valid and last non-missing value obtained within 28 days prior to participant receiving first study medication. EOT visit was performed within 3 days after the participant's last dose of study drug. […] Analysis was performed on mITT population. Here, ‘number analyzed’=participants with available data for each specified category. Here, ‘0’ in the number analyzed field signifies that none of the participants were available for the analysis at the specified time points.
# Change From Baseline in Percent Predicted Forced Vital Capacity (FVC) at Each Specified Time Points. FVC was the total amount of air (in liters) exhaled from the lungs during the lung function test measured by spirometer which assessed the change in lung function related to the disease status. Baseline value was defined as valid and last non-missing value obtained within 28 days prior to participant receiving first study medication. EOT visit was performed within 3 days after the participant's last dose of study drug. […] Analysis was performed on mITT population. Here, ‘number analyzed’=participants with available data for each specified category. Here, ‘0’ in the number analyzed field signifies that none of the participants were available for the analysis at the specified time points.
# Change From Baseline in Percent Predicted Hemoglobin (HGB) Corrected Diffusing Capacity of Lung for Carbon Monoxide (DLco) at Each Specified Time Points. DLco is a measurement of the ability of the lungs to transfer gases from the air to the blood. Change from baseline in diffusing capacity of the lung for carbon monoxide (percent predicted hemoglobin level corrected) was reported for this measure. Baseline value was defined as valid and last non-missing value obtained within 28 days prior to participant receiving first study medication. EOT visit was performed within 3 days after the participant's last dose of study drug. […] Analysis was performed on mITT population. Here, ‘number analyzed’=participants with available data for each specified category. Here, ‘0’ in the number analyzed field signifies that none of the participants were available for the analysis at the specified time points.
# Change From Baseline in Percent Predicted Total Lung Capacity (TLC) at Each Specified Time Points. TLC is the volume of air in the lungs upon the maximum effort of inspiration. Baseline value was defined as valid and last non-missing value obtained within 28 days prior to participant receiving first study medication. EOT visit was performed within 3 days after the participant's last dose of study drug. […] Analysis was performed on mITT population. Here, ‘number analyzed’=participants with available data for each specified category.
compound,measurement,setting,value
"CC(C)NC(=O)COc1cccc(-c2nc(Nc3ccc4[nH]ncc4c3)c3ccccc3n2)c1 [Belumosudil, 2-{3-[4-(1H-indazol-5-ylamino)-2-quinazolinyl]phenoxy}-N-(propan-2-yl) acetamide]","Change From Baseline in Percent Predicted Residual Volume (RV), Mean (Standard Deviation)","Cohort 1: 200 mg QD, Cycle 3, Day 1, n=14",0.2 (22.2) percent predicted RV
same,"Change From Baseline in Percent Predicted Residual Volume (RV), Mean (Standard Deviation)","Cohort 1: 200 mg QD, Cycle 5, Day 1, n=13",5.2 (24.5) percent predicted RV
same,"Change From Baseline in Percent Predicted Residual Volume (RV), Mean (Standard Deviation)","Cohort 1: 200 mg QD, Cycle 7, Day 1, n=11",4.9 (29.1) percent predicted RV
same,"Change From Baseline in Percent Predicted Residual Volume (RV), Mean (Standard Deviation)","Cohort 1: 200 mg QD, Cycle 9, Day 1, n=9",6.4 (27.4) percent predicted RV
same,"Change From Baseline in Percent Predicted Residual Volume (RV), Mean (Standard Deviation)","Cohort 1: 200 mg QD, Cycle 11, Day 1, n=7",22.1 (29.6) percent predicted RV
same,"Change From Baseline in Percent Predicted Residual Volume (RV), Mean (Standard Deviation)","Cohort 1: 200 mg QD, Cycle 12, Day 1, n=1",−28.0 (—) percent predicted RV
same,"Change From Baseline in Percent Predicted Residual Volume (RV), Mean (Standard Deviation)","Cohort 1: 200 mg QD, Cycle 13, Day 1, n=7",20.3 (19.9) percent predicted RV
same,"Change From Baseline in Percent Predicted Residual Volume (RV), Mean (Standard Deviation)","Cohort 1: 200 mg QD, Cycle 14, Day 1, n=1",78.0 (—) percent predicted RV
same,"Change From Baseline in Percent Predicted Residual Volume (RV), Mean (Standard Deviation)","Cohort 1: 200 mg QD, Cycle 15, Day 1, n=6",20.3 (27.4) percent predicted RV
same,"Change From Baseline in Percent Predicted Residual Volume (RV), Mean (Standard Deviation)","Cohort 1: 200 mg QD, Cycle 16, Day 1, n=1",0.0 (—) percent predicted RV
same,"Change From Baseline in Percent Predicted Residual Volume (RV), Mean (Standard Deviation)","Cohort 1: 200 mg QD, Cycle 17, Day 1, n=5",13.6 (27.8) percent predicted RV
same,"Change From Baseline in Percent Predicted Residual Volume (RV), Mean (Standard Deviation)","Cohort 1: 200 mg QD, Cycle 19, Day 1, n=5",5.4 (28.7) percent predicted RV
same,"Change From Baseline in Percent Predicted Residual Volume (RV), Mean (Standard Deviation)","Cohort 1: 200 mg QD, Cycle 21, Day 1, n=3",8.3 (10.0) percent predicted RV
same,"Change From Baseline in Percent Predicted Residual Volume (RV), Mean (Standard Deviation)","Cohort 1: 200 mg QD, Cycle 23, Day 1, n=3",0.3 (5.1) percent predicted RV
same,"Change From Baseline in Percent Predicted Residual Volume (RV), Mean (Standard Deviation)","Cohort 1: 200 mg QD, Cycle 24, Day 1, n=1",−4.0 (—) percent predicted RV
same,"Change From Baseline in Percent Predicted Residual Volume (RV), Mean (Standard Deviation)","Cohort 1: 200 mg QD, Cycle 25, Day 1, n=2",1.0 (9.9) percent predicted RV
same,"Change From Baseline in Percent Predicted Residual Volume (RV), Mean (Standard Deviation)","Cohort 1: 200 mg QD, Cycle 26, Day 1, n=1",−3.0 (—) percent predicted RV
same,"Change From Baseline in Percent Predicted Residual Volume (RV), Mean (Standard Deviation)","Cohort 1: 200 mg QD, Cycle 27, Day 1, n=2",19.5 (41.7) percent predicted RV
same,"Change From Baseline in Percent Predicted Residual Volume (RV), Mean (Standard Deviation)","Cohort 1: 200 mg QD, Cycle 29, Day 1, n=2",−13.0 (42.4) percent predicted RV
same,"Change From Baseline in Percent Predicted Residual Volume (RV), Mean (Standard Deviation)","Cohort 1: 200 mg QD, Cycle 37, Day 1, n=1",−54.0 (—) percent predicted RV
same,"Change From Baseline in Percent Predicted Residual Volume (RV), Mean (Standard Deviation)","Cohort 1: 200 mg QD, Cycle 38, Day 1, n=1",8.0 (—) percent predicted RV
same,"Change From Baseline in Percent Predicted Residual Volume (RV), Mean (Standard Deviation)","Cohort 1: 200 mg QD, Cycle 39, Day 1, n=2",43.0 (89.1) percent predicted RV
same,"Change From Baseline in Percent Predicted Residual Volume (RV), Mean (Standard Deviation)","Cohort 1: 200 mg QD, Cycle 40, Day 1, n=1",−1.0 (—) percent predicted RV
same,"Change From Baseline in Percent Predicted Residual Volume (RV), Mean (Standard Deviation)","Cohort 1: 200 mg QD, Cycle 41, Day 1, n=1",80.0 (—) percent predicted RV
same,"Change From Baseline in Percent Predicted Residual Volume (RV), Mean (Standard Deviation)","Cohort 1: 200 mg QD, Cycle 43, Day 1, n=1",58.0 (—) percent predicted RV
same,"Change From Baseline in Percent Predicted Residual Volume (RV), Mean (Standard Deviation)","Cohort 1: 200 mg QD, Cycle 47, Day 1, n=1",42.0 (—) percent predicted RV
same,"Change From Baseline in Percent Predicted Residual Volume (RV), Mean (Standard Deviation)","Cohort 1: 200 mg QD, Cycle 48, Day 1, n=1",−50.0 (—) percent predicted RV
same,"Change From Baseline in Percent Predicted Residual Volume (RV), Mean (Standard Deviation)","Cohort 1: 200 mg QD, Cycle 49, Day 1, n=1",−14.0 (—) percent predicted RV
same,"Change From Baseline in Percent Predicted Residual Volume (RV), Mean (Standard Deviation)","Cohort 1: 200 mg QD, Cycle 51, Day 1, n=1",22.0 (—) percent predicted RV
same,"Change From Baseline in Percent Predicted Residual Volume (RV), Mean (Standard Deviation)","Cohort 1: 200 mg QD, Cycle 52, Day 1, n=1",−4.0 (—) percent predicted RV
same,"Change From Baseline in Percent Predicted Residual Volume (RV), Mean (Standard Deviation)","Cohort 1: 200 mg QD, Cycle 53, Day 1, n=1",22.0 (—) percent predicted RV
same,"Change From Baseline in Percent Predicted Residual Volume (RV), Mean (Standard Deviation)","Cohort 1: 200 mg QD, Cycle 54, Day 1, n=1",4.0 (—) percent predicted RV
same,"Change From Baseline in Percent Predicted Residual Volume (RV), Mean (Standard Deviation)","Cohort 1: 200 mg QD, Cycle 55, Day 1, n=1",53.0 (—) percent predicted RV
same,"Change From Baseline in Percent Predicted Residual Volume (RV), Mean (Standard Deviation)","Cohort 1: 200 mg QD, Cycle 56, Day 1, n=1",17.0 (—) percent predicted RV
same,"Change From Baseline in Percent Predicted Residual Volume (RV), Mean (Standard Deviation)","Cohort 1: 200 mg QD, Cycle 57, Day 1, n=1",18.0 (—) percent predicted RV
same,"Change From Baseline in Percent Predicted Residual Volume (RV), Mean (Standard Deviation)","Cohort 1: 200 mg QD, Cycle 58, Day 1, n=1",4.0 (—) percent predicted RV
same,"Change From Baseline in Percent Predicted Residual Volume (RV), Mean (Standard Deviation)","Cohort 1: 200 mg QD, Cycle 60, Day 1, n=1",−20.0 (—) percent predicted RV
same,"Change From Baseline in Percent Predicted Residual Volume (RV), Mean (Standard Deviation)","Cohort 1: 200 mg QD, Cycle 61, Day 1, n=1",−18.0 (—) percent predicted RV
same,"Change From Baseline in Percent Predicted Residual Volume (RV), Mean (Standard Deviation)","Cohort 1: 200 mg QD, Cycle 62, Day 1, n=1",−8.0 (—) percent predicted RV
same,"Change From Baseline in Percent Predicted Residual Volume (RV), Mean (Standard Deviation)","Cohort 1: 200 mg QD, Cycle 63, Day 1, n=1",6.0 (—) percent predicted RV
same,"Change From Baseline in Percent Predicted Residual Volume (RV), Mean (Standard Deviation)","Cohort 1: 200 mg QD, Cycle 67, Day 1, n=1",2.0 (—) percent predicted RV
same,"Change From Baseline in Percent Predicted Residual Volume (RV), Mean (Standard Deviation)","Cohort 1: 200 mg QD, EOT, n=11",6.3 (24.3) percent predicted RV
same,"Change From Baseline in Percent Predicted Residual Volume (RV), Mean (Standard Deviation)","Cohort 2: 200 mg BID, Cycle 3, Day 1, n=12",−4.6 (18.8) percent predicted RV
same,"Change From Baseline in Percent Predicted Residual Volume (RV), Mean (Standard Deviation)","Cohort 2: 200 mg BID, Cycle 5, Day 1, n=11",−11.5 (26.9) percent predicted RV
same,"Change From Baseline in Percent Predicted Residual Volume (RV), Mean (Standard Deviation)","Cohort 2: 200 mg BID, Cycle 7, Day 1, n=8",−9.9 (17.1) percent predicted RV
same,"Change From Baseline in Percent Predicted Residual Volume (RV), Mean (Standard Deviation)","Cohort 2: 200 mg BID, Cycle 8, Day 1, n=1",−28.0 (—) percent predicted RV
same,"Change From Baseline in Percent Predicted Residual Volume (RV), Mean (Standard Deviation)","Cohort 2: 200 mg BID, Cycle 9, Day 1, n=8",−19.9 (24.3) percent predicted RV
same,"Change From Baseline in Percent Predicted Residual Volume (RV), Mean (Standard Deviation)","Cohort 2: 200 mg BID, Cycle 10, Day 1, n=2",−47.5 (0.7) percent predicted RV
same,"Change From Baseline in Percent Predicted Residual Volume (RV), Mean (Standard Deviation)","Cohort 2: 200 mg BID, Cycle 11, Day 1, n=6",−10.5 (28.3) percent predicted RV
same,"Change From Baseline in Percent Predicted Residual Volume (RV), Mean (Standard Deviation)","Cohort 2: 200 mg BID, Cycle 12, Day 1, n=1",−5.0 (—) percent predicted RV
